Assay results reported in patent publication US20240246918A1, “COMPOUNDS AND COMPOSITIONS AS EIF4E INHIBITORS AND THE USES THEREOF” (Ribometrix, Inc., priority 2022, published 2024).

Key:
[1] = molecular target: T1, human eIF4E protein (Homo sapiens, UniProt P06730); assay: Biochemical competitive binding assay (TR-FRET competition, EDA-m7GDP-ATTO-647N probe); conditions: read-out: hEIF4E TR-FRET IC50
T1 construct: purchased Novus NBP-45314
Procedure, shortened: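 IC50 values come from 4-parameter fits of the normalized 665/620 nm TR-FRET ratio. Compound was first incubated 15 min with 4 nM recombinant His-eIF4E bound to 2.5 nM Eu-anti-His antibody, then 15 min with 5 nM m7GDP-ATTO-647N tracer, in pH 7.5 HEPES buffer with 100 mM KCl, Tween-20 and BSA.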

[2] = tested on: COLO 205 colorectal tumor cells; assay: Tumor cell viability inhibition assay (CellTiter-Glo 2.0, 72 hours); format: cell-based; conditions: COLO 205 cell viability
Procedure, shortened: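 IC50 derived by 4-parameter fitting after normalizing luminescence to DMSO and max-inhibition wells. Compounds tested as 11 concentrations in 4-fold steps on COLO 205 cells seeded at 1500 per well in RPMI-1640/10% FBS; ATP content measured with CellTiter-Glo 2.0 after 72 h.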

T1 sequence (P06730 whole entry): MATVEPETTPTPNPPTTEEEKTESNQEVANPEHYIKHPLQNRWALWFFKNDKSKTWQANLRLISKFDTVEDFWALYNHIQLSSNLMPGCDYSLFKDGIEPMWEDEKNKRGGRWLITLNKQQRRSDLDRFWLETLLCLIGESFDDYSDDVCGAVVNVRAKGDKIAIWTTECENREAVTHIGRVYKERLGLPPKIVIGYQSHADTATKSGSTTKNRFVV

| Compound | IC50 [1] | IC50 ([2]; Homo sapiens, COLO 205, 72 h) | IC50 [2] |
| --- | --- | --- | --- |
| Cc1cc(-c2cc(Cl)ccc2OCCn2c(C)nc3c(c2=O)C[C@H](N2CCC[C@H](c4ncccc4F)C2)CC3)c2scc(C(=O)O)c2n1 (single isomer, unassigned) [Compound 464] | < 0.1 µM | < 5 µM | – |
| Cc1cc(-c2cc(Cl)ccc2OCCn2c(C)nc3c(c2=O)C[C@@H](N2CCC(C(F)(F)F)CC2)CC3)c2scc(C(=O)O)c2n1 (single isomer, unassigned) [Compound 374] | < 0.1 µM | < 5 µM | – |
| Cc1cc(-c2cc(Cl)ccc2OCCn2c(C)nc3c(c2=O)C[C@@H](N2CCC4(CC2)COCCO4)CC3)c2scc(C(=O)O)c2n1 (single isomer, unassigned) [Compound 425] | < 0.1 µM | 5 to 20 µM | – |
| Cc1cc(-c2cc(Cl)ccc2OCCn2c(C)nc3c(c2=O)C[C@H](N2CCC(c4ccc(F)cc4F)CC2)CC3)c2scc(C(=O)O)c2n1 (single isomer, unassigned) [Compound 418] | < 0.1 µM | < 5 µM | – |
| Cc1cc(-c2cc(Cl)ccc2OCCn2c(C)nc3c(c2=O)C[C@H](N2CCC[C@@H](C(F)(F)F)C2)CC3)c2scc(C(=O)O)c2n1 (single isomer, unassigned) [Compound 382] | < 0.1 µM | < 5 µM | – |
| Cc1cc(-c2cc(Cl)ccc2OCCn2c(C)nc3c(c2=O)C[C@@H](N2CC[C@@H](OC(F)(F)F)C(C)(C)C2)CC3)c2scc(C(=O)O)c2n1 (single isomer, unassigned) [Compound 393] | < 0.1 µM | 5 to 20 µM | – |
| Cc1cc(-c2cc(Cl)ccc2OCCn2c(C)nc3c(c2=O)C[C@H](N2CCC4(CC2)COCCO4)CC3)c2scc(C(=O)O)c2n1 (single isomer, unassigned) [Compound 424] | < 0.1 µM | < 5 µM | – |
| Cc1cc(-c2cc(Cl)ccc2OCCn2c(C)nc3c(c2=O)C[C@H](N2CCC(c4ncccc4F)CC2)CC3)c2scc(C(=O)O)c2n1 (single isomer, unassigned) [Compound 444] | < 0.1 µM | < 5 µM | – |
| Cc1cc(-c2cc(Cl)ccc2OCCn2c(C)nc3c(c2=O)C[C@@H](N2CCC(c4nccs4)CC2)CC3)c2scc(C(=O)O)c2n1 (single isomer, unassigned) [Compound 476] | < 0.1 µM | < 5 µM | – |
| COC1CCN([C@@H]2CCc3nc(C)n(CCOc4ccc(Cl)cc4-c4cc(C)nc5c(C(=O)O)csc45)c(=O)c3[C@@H]2C)CC1 (stereo in doubt) [Compound 103, 7-(5-chloro-2-(2-(6-(4-methoxypiperidin-1-yl)-2,5-dimethyl-4-oxo-5,6,7,8-tetrahydroquinazolin-3(4H)-yl)ethoxy)phenyl)-5-methylthieno[3,2-b]pyridine-3-carboxylic acid] | < 0.1 µM | 5 to 20 µM | – |
| COC1(C(F)(F)F)CCN([C@H]2CCc3nc(C)n(CCOc4ccc(Cl)cc4-c4cc(C)nc5c(C(=O)O)csc45)c(=O)c3C2)CC1 (single isomer, unassigned) [Compound 451] | < 0.1 µM | < 5 µM | – |
| Cc1cc(-c2cc(Cl)ccc2OCCn2c(C)nc3c(c2=O)C[C@@H](N2CCC(c4cncc(S(=O)(=O)NC(C)(C)C)c4)CC2)CC3)c2scc(C(=O)O)c2n1 (single isomer, unassigned) [Compound 456] | < 0.1 µM | 5 to 20 µM | – |
| Cc1cc(-c2cc(Cl)ccc2OCCn2c(C)nc3c(c2=O)CC(N2CCC(C(F)F)CC2)CC3)c2scc(C(=O)O)c2n1 (stereo not drawn) [Compound 124] | < 0.1 µM | < 5 µM | – |
| [2H]C([2H])([2H])N(Cc1ccnc(OC)c1)C1CCc2nc(C)n(CCOc3ccc(Cl)cc3-c3cc(C)nc4c(C(=O)O)csc34)c(=O)c2C1 (stereo not drawn) [Compound 125, 7-(5-chloro-2-(2-(6-(((2-methoxypyridin-4-yl)methyl)(methyl-d3)amino)-2-methyl-4-oxo-5,6,7,8-tetrahydroquinazolin-3(4H)-yl)ethoxy)phenyl)-5-methylthieno[3,2-b]pyridine-3-carboxylic acid] | < 0.1 µM | < 5 µM | – |
| Cc1cc(-c2cc(Cl)ccc2OCCn2c(C)nc3c(c2=O)C[C@H](N2C[C@@H]4CC[C@H]2CC4OC(F)(F)F)CC3)c2scc(C(=O)O)c2n1 (single isomer, unassigned) [Compound 501] | < 0.1 µM | < 5 µM | – |
| Cc1cc(-c2cc(Cl)c(=O)[nH]c2OCCn2c(C)nc3c(c2=O)CC(N(C)CC2CC(F)(F)C2)CC3)c2scc(C(=O)O)c2n1 (single isomer, unassigned) [Compound 238] | 0.5 to 5 µM | – | > 20 µM |
| Cc1cc(-c2cc(Cl)ccc2OCCn2c(C)nc3c(c2=O)C[C@@H](N2CCCCC(F)(F)C2)CC3)c2scc(C(=O)O)c2n1 (single isomer, unassigned) [Compound 470] | < 0.1 µM | < 5 µM | – |
| Cc1cc(-c2cc(Cl)ccc2OCCn2c(C)nc3c(c2=O)C[C@@H](N2CCC(c4ccn(C)n4)CC2)CC3)c2scc(C(=O)O)c2n1 (single isomer, unassigned) [Compound 454] | < 0.1 µM | < 5 µM | – |
| Cc1cc(-c2cc(Cl)ccc2OCCn2c(C)nc3c(c2=O)CC(N2CCC(OC(F)(F)F)CC2)CC3)c2scc(C(=O)O)c2n1 (single isomer, unassigned) [Compound 135] | < 0.1 µM | < 5 µM | – |
| Cc1cc(-c2cc(Cl)ccc2OCCn2c(C)nc3c(c2=O)CC(N2CCC(c4cccc(C(F)(F)F)c4)CC2)CC3)c2scc(C(=O)O)c2n1 (stereo not drawn) [Compound 127] | < 0.1 µM | < 5 µM | – |
| Cc1cc(-c2cc(Cl)ccc2OCCn2c(C)nc3c(c2=O)C[C@@H](N2CCC[C@H](c4ccn(C)n4)C2)CC3)c2scc(C(=O)O)c2n1 (single isomer, unassigned) [Compound 448] | < 0.1 µM | < 5 µM | – |

The remaining lines, values ahead:

| IC50 [1] | IC50 ([2]; Homo sapiens, COLO 205, 72 h) | IC50 [2] | Compound |
| --- | --- | --- | --- |
| < 0.1 µM | 5 to 20 µM | – | Cc1nc2c(c(=O)n1CC#Cc1ccc(Cl)cc1-c1ccnc3c(C(=O)O)csc13)C[C@@H](N1CCC[C@]3(C1)CC3(F)F)CC2 (single isomer, unassigned) [Compound 537, 7-(5-chloro-2-(3-(6-(1,1-difluoro-5-azaspiro[2.5]octan-5-yl)-2-methyl-4-oxo-5,6,7,8-tetrahydroquinazolin-3(4H)-yl)prop-1-yn-1-yl)phenyl)thieno[3,2-b]pyridine-3-carboxylic acid] |
| < 0.1 µM | < 5 µM | – | Cc1cc(-c2cc(Cl)ccc2OCCn2c(C)nc3c(c2=O)C[C@H](N2CCCC[C@@H]2c2cccc(F)c2)CC3)c2scc(C(=O)O)c2n1 (single isomer, unassigned) [Compound 541] |
| 0.1 to 0.5 µM | – | > 20 µM | Cc1cc(-c2cc(Cl)ccc2OCCn2c(C)nc3c(c2=O)CC(CN(C)C)(N2CCC(OC(F)(F)F)CC2)CC3)c2scc(C(=O)O)c2n1 (single isomer, unassigned) [Compound 621] |
| < 0.1 µM | < 5 µM | – | Cc1cc(-c2cc(Cl)ccc2OCCn2c(C)nc3c(c2=O)C[C@H](N2CCC(Oc4ccc(F)cc4F)CC2)CC3)c2scc(C(=O)O)c2n1 (single isomer, unassigned) [Compound 595] |
| < 0.1 µM | < 5 µM | – | Cc1cc(-c2cc(Cl)ccc2OCCn2c(C)nc3c(c2=O)C[C@@H](N2CCC(c4cc(F)cc(F)c4F)CC2)CC3)c2scc(C(=O)O)c2n1 (single isomer, unassigned) [Compound 574] |
| 0.1 to 0.5 µM | – | 5 to 20 µM | Cc1cc(-c2cc(Cl)ccc2C#CCn2c(C)nc3c(c2=O)CC(C)(N2CCCC4(C2)CC4(F)F)CC3)c2scc(C(=O)O)c2n1 (single isomer, unassigned) [Compound 612] |
| < 0.1 µM | < 5 µM | – | Cc1cc(-c2cc(Cl)ccc2OCCn2c(C)nc3c(c2=O)C[C@@H](N2CCC[C@@H](C(F)F)C2)CC32CC2)c2scc(C(=O)O)c2n1 (single isomer, unassigned) [Compound 609] |
| < 0.1 µM | < 5 µM | – | Cc1cc(-c2cc(Cl)ccc2OCCn2c(C)nc3c(c2=O)CC(C)(N2CCC4(CC2)CC4(F)F)CC3)c2scc(C(=O)O)c2n1 (single isomer, unassigned) [Compound 556] |
| < 0.1 µM | – | > 20 µM | Cc1cc(-c2cc(Cl)ccc2OCCn2c(C)nc3c(c2=O)CC(N2CC4(CCCNC4)C2)CC3)c2scc(C(=O)O)c2n1 (single isomer, unassigned) [Compound 510] |
| < 0.1 µM | < 5 µM | – | Cc1cc(-c2cc(Cl)ccc2OCCn2c(C)nc3c(c2=O)C[C@H](N2CCC[C@H](C(F)F)C2)CC32CC2)c2scc(C(=O)O)c2n1 (single isomer, unassigned) [Compound 617] |
| < 0.1 µM | – | < 5 µM | Cc1cc(-c2cc(Cl)ccc2OCCn2c(C)nc3c(c2=O)CC(C)(N2CCC4(CC2)CC4(F)F)CC3)c2scc(C(=O)O)c2n1 (single isomer, unassigned) [Compound 557] |
| < 0.1 µM | < 5 µM | – | Cc1cc(-c2cc(Cl)ccc2OCCn2c(C)nc3c(c2=O)C[C@H](N2CCCC[C@H]2c2nccs2)CC3)c2scc(C(=O)O)c2n1 (single isomer, unassigned) [Compound 546] |
| < 0.1 µM | < 5 µM | – | Cc1cc(-c2cc(Cl)ccc2OCCn2c(C)nc3c(c2=O)C[C@@H](N2CCC(OC(F)(F)F)CC2)[C@H]2C[C@@H]32)c2scc(C(=O)O)c2n1 (single isomer, unassigned) [Compound 598] |
| < 0.1 µM | < 5 µM | – | Cc1cc(-c2cc(Cl)ccc2OCCn2c(C)nc3c(c2=O)CC(N2CCC4(CN(CC(F)(F)F)CC(F)(F)C4)C2)CC3)c2scc(C(=O)O)c2n1 (single isomer, unassigned) [Compound 511] |
| < 0.1 µM | < 5 µM | – | Cc1cc(-c2cc(Cl)ccc2OCCn2c(C)nc3c(c2=O)C[C@@H](N2CCC(c4nc(C(F)(F)F)cs4)CC2)CC3)c2scc(C(=O)O)c2n1 (single isomer, unassigned) [Compound 578] |
